Tests used:
prostaglandin E2 = settings: cited from earlier work
leukotriene C4 = settings: cited from earlier work
rat footpad = settings: applied topically to rat footpad; cited from earlier work
cyclooxygenase = settings: cited from earlier work
guinea pig skin = settings: compared with indomethacin; cited from earlier work
human subject [1] = experiment: Contact irritant dermatitis to guanfacine patches with incorporated hydrocortisone; type: in vivo; settings: 23 hour and 1 week observation
Description: (§1) The Grading System for this example is as follows: +/- faint, or spotty, pink color within test site; 1 uniform pink color covering all of test site; 2 uniform pink to red color covering all of test site; 3 uniform bright red color covering all of test site; 4 uniform bright red color covering all of test side with edema, blisters, or weeping.
Objective - To block the contact irritant dermatitis observed following application of guanfacine patches to the skin through the incorporation of hydrocortisone in the patch. Materials - Two formulations of the antihypertensive drug guanfacine were used in this study. Into each was incorporated hydrocortisone at either 0.5% or 2.0%. Control patches containing no hydrocortisone were also used. Thus, the following formulations were prepared: […]
(To make the 0.5% hydrocortisone formulations, 20 mg hydrocortisone was added to 4 grams of the above formulations. To make 2.0% hydrocortisone formulations, 80 mg of hydrocortisone was added to 4 grams of the above two formulations). Methods - Three patches of each of the two guanfacine formulations, containing either 0%, 0.5% or 2.0% hydrocortisone, were applied to the upper arm of a single human subject not previously exposed to this drug. The patches were removed after 23 hours and the sites observed for signs of dermatitis. One week later, the sites were again observed.

[2] = tested on: human subject previously sensitized to clonidine; experiment: Contact allergic dermatitis to clonidine patches with incorporated fluocinonide, sensitized subject; type: in vivo; settings: 2% fluocinonide incorporated in the clonidine patch
Description: as §1
Objective - To block the contact allergic dermatitis which occurs following application of clonidine patches to the skin through incorporation of fluocinonide in the patches. Materials - One formulation of the anti-hypertensive drug clonidine was used in which either 0% or 2% fluocinonide was incorporated. A second formulation containing no clonidine was also tested. Thus, the following formulations were prepared: […]
Methods - Two patches containing clonidine and either 0% or 2% fluocinonide were applied to the upper back of a single human subject previously sensitized to clonidine. A third patch containing no clonidine and no fluocinonide was also applied as a placebo. The patches were removed after 7 days and the sites read immediately and on the 8th day as well. […]

human subject [3] = experiment: Contact irritant dermatitis to RO 22-1327 patches with incorporated fluocinonide; type: in vivo; settings: 1.0% fluocinonide incorporated into the RO 22-1327 patch
Description: as §1
Objective - To block the contact irritant dermatitis observed following application of RO 22-1327 patches to the skin through the incorporation of fluocinonide in the patch. Materials - One formulation of the antihypertensive drug RO 22-1327 was used, in which either 0%, 0.1%. 1.0% or 5% fluocinonide was incorporated. Methods - Four patches containing RO 22-1327 and fluocinonide at either 0%, 0.1%, 1.0%. or 5.0% were applied to the upper arms (two per arm) of a single human subject not previously exposed to this drug. The patches were removed at 8 hours and the sites observed for signs of dermatitis immediately and 16 hours later. In a second test. one RO 22-1327 patch containing 1.0% fluocinonide was applied to the upper arm of the same human subject as above and removed after 24 hours. The site was examined immediately for signs of dermatitis.

[4] = tested on: human subject previously sensitized to fluphenazine; experiment: Contact allergic dermatitis to fluphenazine patches with incorporated fluocinonide, sensitized subject; type: in vivo; settings: 1% or 5% fluocinonide incorporated in the fluphenazine patch
Description: as §1
Objective - To block contact dermatitis observed following application of fluphenazine patches to the skin through incorporation of fluocinonide in the patch. Materials - One formulation of the anti-psychotic drug fluphenazine was used in which either 0%, 1% or 5% fluocononide was incorporated. Thus, the following formulations were prepared: […]
Methods - Three patches containing fluphenazine and fluocinonide at either 0%, 1% or 5% of fluocinonide were applied to the upper arm of a single human subject previously sensitized to fluphenazine. The patches were removed at 48 hours and the sites observed for signs of allergic dermatitis immediately and at 72 and 96 hours. […]

[5] = tested on: human subject previously sensitized to trifluoperazine; experiment: Contact allergic dermatitis to trifluoperazine patches with incorporated fluocinonide, sensitized subject; type: in vivo; settings: 2% fluocinonide incorporated in the trifluoperazine patch
Description: as §1
Objective - To block the contact allergic dermatitis which occurs following application of trifluoperazine patches to the skin through the incorporation of fluocinonide in the patches. Materials - One formulation of the tranquilizer drug trifluoperazine was used in which either 0% or 2% fluocinonide was incorporated. Thus, the following formulations were prepared: […]
Methods - Two patches containing trifluoperazine and either 0% or 2% fluocinonide were applied to the upper arm of a single human subject previously sensitized to trifluoperazine. The patches were removed after two days and the sites read immediately and 24 and 48 hours later as well. […]

COc1cc(-c2nc3ncccc3o2)cc(C(C)(C)C)c1 [2-(3-(1,1-dimethylethyl)5-methoxyphenyl-oxazolo(4,5-b)pyridine]
inhibition of prostaglandin E2 synthesis (prostaglandin E2): inhibitor | inhibition of leukotriene C4 synthesis (leukotriene C4): not | analgesic effect (rat footpad): effective analgesic | cyclooxygenase inhibition (cyclooxygenase): inhibitor | inhibiting ultra-violet light-induced erythema (guinea pig skin): as potent as indomethacin

C[C@]12CCC(=O)C=C1CC[C@@H]1[C@@H]2[C@@H](O)C[C@@]2(C)[C@H]1CC[C@]2(O)C(=O)CO [hydrocortisone]
adverse reactions (irritant dermatitis) (human subject [1]; 0.5% hydrocortisone guanfacine patches): variable | adverse reactions (irritant dermatitis) (human subject [1]; 2.0% hydrocortisone guanfacine patches): No adverse reactions

CC(=O)OCC(=O)[C@@]12OC(C)(C)O[C@@H]1C[C@H]1[C@@H]3C[C@H](F)C4=CC(=O)C=C[C@]4(C)[C@@]3(F)[C@@H](O)C[C@@]12C [fluocinonide]
allergic reaction (erythema and blistering) caused by clonidine [2]: significantly reduced | irritant dermatitis associated with the use of RO 22-1327 (human subject [3]): significant reduction | allergic reaction (erythema and blistering) caused by fluphenazine [4]: almost completely blocked | magnitude of the allergic reaction (erythema and blistering) caused by trifluoperazine [5]: significantly reduced
